According to patent US6759430B2, “Piperidine and pyrrolidine derivatives comprising a nitric oxide donor for treating stress” (OxoN Medica Inc., priority 1998, dated 2004):

Columns and labels:
[1] = in vivo blood pressure (mean arterial pressure) monitoring in anesthetized rats; set-up: species or system rat
Description: (§1) Materials: Male Sprague-Dawley rats (250-300 g) were purchased from the Animal Care Facility of the Hebrew University and used in the rat aortic rings (RARs) relaxation studies in vitro and the blood pressure monitoring and cGMP studies in vivo.
In the in vivo experiment, rats were anesthetized with an intraperitoneal injection of a combination of ketamine and xylazine (50 and 10 mg per kg, respectively). A catheter was placed in the right external jugular vein and introduced to the level of right atrium. A second arterial catheter was placed in the left carotid artery and introduced to the level of the ascending aorta. The tip of arterial catheter was connected to a pressure transducer which is connected to another electrical transducer connected to a computerized Experimetria system. Blood-pressure (mean arterial pressure=MAP) was recorded before (basal) and after drug administration. NO-TEMPO was injected through the venous catheter and induced a significant drop in MAP which lasts for 5 to 10 minutes. Values for basal MAP were 130±15 before and 60±10 mm Hg following a 1 mg injection of NO-TEMPO.

rat aortic rings (RARs) [2] = assay: in vitro induction of tolerance in rat aortic rings; format: cell-based; settings: for tolerance induction in vitro: RARs pre-exposed to 0.44 mM of the drug for 1 hr; for vaso-relaxant effect on rings before and after exposure to GTN: rings exposed to 0.44 mM GTN for 1 hr, FIGS. 4 and 5; for vaso-relaxant potency, control versus NO-TEMPO-pre-treated RARs: rings exposed to 0.44 mM NO-TEMPO, FIGS. 7 and 8
Description: as §1
In vitro induction of GTN tolerance: Aortic rings were treated as for the control studies except that rings were exposed to 0.44 mM GTN for 1 hr. At the end of the tolerance induction period, rings were washed every 15 min for the following hour. Attempted induction of tolerance to NO-TEMPO was performed under the same conditions as for GTN with rings exposed to 0.44 mM solution of NO-TEMPO. CCRC were constructed for NO-TEMPO and GTN. […] This conclusion is further supported by separately evaluating the vaso-relaxant effect of each drug on control and NO-TEMPO-pre-treated RARs.

[3] = in vivo induction of tolerance, subcutaneous dosing; set-up: species or system rat; settings: subcutaneously 30 mg/kg t.i.d for three consecutive days
[4] = test system: cGMP content in aortic tissue; assay: vascular cGMP content after in vivo administration (RIA); set-up: species or system rat; settings: for effect on vascular cGMP compared to GTN: intravenously in equimolar doses
Description: as §1
Experiments were performed in anaesthetized rats as above. Following i.v. administration of NO-TEMPO (0.1, 0.2, 0.5 mg etc.,) the thorax was opened and the aorta removed immediately (within thirty seconds from the administration). After standard processing procedures, cGMP content in the vascular tissue was measured by Radioimmunoassay (RIA) using commercially available kits (i.e., Kit 500 TRK from Amersham).

[5] = superoxide scavenging activity in vitro (photometric microassay, xanthine oxidase/hypoxanthine, ferricytochrome c reduction); format: biochemical; settings: inhibition of ferricytochrome c reduction; 0.003-3 mM tested; n=5
Description: Assessment of superoxide scavenging activity in vitro
The superoxide scavenging activity of TEMPO-4-mononitrate (0.003-3 mM) and reference compound superoxide dismutase (SOD, 200 U/ml), were determined using a photometric microassay in vitro (Laight et al., Environ. J. Toxicol. Pharmracol., 3, 65-68, 1997) developed from the assay of McCord & Fridovich (J. Biol. Chem., 244, 6059-55, 1969). The assay mixture consisted of (final concentration): 50 μl ferricytochrome c (100 μM); 10 μl xanthine oxidase (20 mU/ml); 20 μl hypoxanthine (100 μM); and 20 μl sample dissolved in isotonic phosphate (10 mM)-buffered saline (PBS, pH 7.4) to make a total volume of 100 μl in a 96-well plate. The reaction was conducted at room temperature and initiated by the addition of hypoxanthine. The increase in optical density (OD) at […] was measured over a 3 min period of 30 s intervals and initial reaction rates determined at least in triplicate.
There was a linear relationship between the initial reaction rate and the concentration of xanthine oxidase (5-20 mU/ml) (r=0.9982, P<0.002, n=4). […] Xanthine oxidase at 20 mU/rml, which provided an initial reaction rate of 28.3±1.7 mOD/min (n=4), was adopted for subsequent inhibition studies (see McCord & Fridovich, 1969). The initial reaction rate was depressed by SOD (200 U/ml) by 95.3±1.1% (n=4, P<0.01) and by TEMPO-4-mononitrate (see FIG. 1).

rat aortic rings (RARs) [6] = assay: in vitro vasorelaxation of epinephrine-contracted rat aortic rings; format: cell-based; settings: control RARs contracted with epinephrine 1 μM; FIGS. 2 and 3
Description: as §1
In vitro vasorelaxation: Thoracic aortae were removed following anesthesia with intraperitoneal injection of ketamine and xylazine (50 and 10 mg/kg, respectively). The paraadventetial tissue surrounding the vessel was carefully removed. Aortae were cut into rings of 4-5 mm and mounted onto the tissue path. The path buffer (Krebs-bicarbonate) was constantly gassed with carbogen and maintained at 37° C. The rings were preloaded under 2 g tension and equilibrated for 90 min with buffer changed every 15 min. After stabilization, the rings were contracted with epinephrine (1 μM). Commulative Concentration-Response Curves (CCRC) were constructed for NO-TEMPO, glyceryl trinitrate (GTN) and S-nitroso-N-acetylpenicillamine (SNAP). FIGS. 2 and 3 represent the vaso-relaxant effect of NO-TEMPO as compared to the conventional NO-donors GTN and SNAP.

Row | SMILES | tolerance of the hypotensive effect on MAP following successive administration [1] | tolerance induction in vitro (rat aortic rings (RARs) [2]) | vaso-relaxant effect on rings before and after exposure to GTN (rat aortic rings (RARs) [2]) | vaso-relaxant potency, control versus NO-TEMPO-pre-treated RARs (rat aortic rings (RARs) [2]) | tolerance induction in vivo [3] | increase in vascular cGMP ([4]; 1 mg i.v. versus basal) | cGMP content in aortic tissue ([4]; 1 mg i.v., aorta removed within thirty seconds, basal 46±10) [pmole/g tissue] | tolerance of the vascular cGMP effect ([4]; NO-TEMPO pre-treated rats) | effect on cGMP content of vascular tissue ([4]; control rats) | effect on vascular cGMP compared to GTN ([4]; control rats) | effect on vascular cGMP compared to GTN ([4]; control rats, listed as NO-TEMPO) | mean arterial pressure (MAP) following injection ([1]; 1 mg injection through venous catheter, basal MAP 130±15) [mm Hg] | hypotensive effects in vivo compared to GTN and SNAP ([1]; rat, in vivo) | pIC50 value [5] | vaso-relaxant effect compared to conventional NO-donors GTN and SNAP (rat aortic rings (RARs) [6])
1 | CC(=O)N[C@H](C(=O)O)C(C)(C)SN=O (racemic) [SNAP, S-nitroso-N-acetylpenicillamine, reference compound] | attenuation to their effect on MAP develops |  |  |  |  |  |  |  |  |  |  |  |  |  | 
2 | O=[N+]([O-])OCC(CO[N+](=O)[O-])O[N+](=O)[O-] [GTN, glyceryl trinitrate, reference compound] | attenuation to their effect on MAP develops | induces tolerance both to itself and to NO-TEMPO | development of GTN tolerance | no significant difference | does induce tolerance to itself and to NO-TEMPO |  |  |  |  |  |  |  |  |  | 
3 | CC1(C)CC(O[N+](=O)[O-])CC(C)(C)N1[O] [TEMPO-4-mononitrate, 4-Nitrato-2,2,6,6-tetramethylpiperidinyloxy, free radical] | lack of tolerance development | does not induce tolerance neither to itself nor to GTN | significant difference | no significant difference | does not induce tolerance either to itself or to GTN | 4-5 fold | 197±18 | lack of tolerance induction | significant increase | compared well with that of GTN | superior activity as compared to GTN | 60±10 | superiority of this drug to both GTN and SNAP | 2.89±0.03 | superiority of NO-TEMPO to both of these NO-donors
